pKi: −log10 of the molar value.
Legend:
[1] = test system: human alpha 1d adrenergic receptor; assay: Selective Binding Assays, alpha 1d ([125I]-HEAT competition binding); conditions: alpha 1a versus alpha 1d
Protocol: (§1) Membranes prepared from stably transfected human alpha 1d and alpha 1b cell lines (ATCC CRL 11138 and CRL 11139, respectively) were used to identify compounds that selectively bind to the human alpha 1a adrenergic receptor. These competition binding reactions (total volume=200 μl ) contained 50 mM Tris-HCl pH. 7.4, 5 mM EDTA, 150 mM NaCl, 100 pM [^125 I]-HEAT, membranes prepared from cell lines transfected with the respective alpha 1 subtype expression plasmid and increasing amounts of unlabeled ligand. Reactions were incubated at room temperature for one hour with shaking. Reactions were filtered onto Whatman GF/C glass fiber filters with a Inotec 96 well cell harvester. Filters were washed three times with ice cold buffer and bound radioactivity was determined (Ki).

[2] = test system: human alpha 1b adrenergic receptor; assay: Selective Binding Assays, alpha 1b ([125I]-HEAT competition binding); conditions: alpha 1a versus alpha 1b
Protocol: as §1

[3] = target: T1, human alpha 1a adrenergic receptor (Homo sapiens, UniProt P35348); assay: Screening Assay: Alpha 1a Adrenergic Receptor Binding ([125I]-HEAT competition binding); conditions: membranes of stably transfected human alpha 1a cell line; 100 pM [125I]-HEAT
T1 construct: expressed in transfected cells; host or cells: stably transfected human alpha 1a cell line (ATCC CRL 11140), membranes
T1 sequence (P35348 1-466): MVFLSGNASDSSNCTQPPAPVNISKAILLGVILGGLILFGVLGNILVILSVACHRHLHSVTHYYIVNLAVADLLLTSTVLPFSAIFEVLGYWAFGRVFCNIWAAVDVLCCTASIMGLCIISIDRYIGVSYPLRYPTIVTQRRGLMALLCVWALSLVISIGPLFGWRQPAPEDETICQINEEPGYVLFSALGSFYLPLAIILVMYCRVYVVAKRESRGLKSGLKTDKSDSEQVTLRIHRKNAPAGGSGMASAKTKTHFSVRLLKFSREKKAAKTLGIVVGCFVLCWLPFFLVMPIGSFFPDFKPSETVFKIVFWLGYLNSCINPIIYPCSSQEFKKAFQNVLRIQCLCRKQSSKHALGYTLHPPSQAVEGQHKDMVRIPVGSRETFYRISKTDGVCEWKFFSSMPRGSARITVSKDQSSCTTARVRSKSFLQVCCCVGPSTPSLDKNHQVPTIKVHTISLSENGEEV
Protocol: Screening Assay: Alpha 1a Adrenergic Receptor Binding
Membranes prepared from the stably transfected human alpha 1a cell line (ATCC CRL 11140) were used to identify compounds that bind to the human alpha 1a adrenergic receptor. These competition binding reactions (total volume=200 μl) contained 50 mM Tris-HCl pH. 7.4, 5 mM EDTA, 150 mM NaCl, 100 pM [^125 I]-HEAT, membranes prepared from the alpha 1a cell line and increasing amounts of unlabeled ligand. Reactions were incubated at room temperature for one hour with shaking. Reactions were filtered onto Whatman GF/C glass fiber filters with a Inotec 96 well cell harvester. Filters were washed three times with ice cold buffer and bound radioactivity was determined (Ki).

Structure (SMILES) | selectivity in binding to alpha 1a receptors versus alpha 1d receptors [1] | selectivity in binding to alpha 1a receptors versus alpha 1b receptors [2] | pKi [3]
O=C(c1ccccc1)[C@@H]1OC(=O)N(C(=O)NCCCN2CCC(c3ccc(F)cc3)CC2)[C@H]1c1ccc(F)c(F)c1 [Example 11] | about 76 fold | about 27 fold | –
N#Cc1ccccc1C1(C#N)CCN(CCCNC(=O)N2C(=O)O[C@@H](C(N)=O)[C@@H]2c2ccc(F)c(F)c2)CC1 [Example 10] | – | – | 8.41

From US6319932A, “Oxazolidinones useful as alpha 1A adrenoceptor antagonists” (Merck & Co., Inc., priority 1999, dated 2001)
